Measurements as given in ChEMBL document CHEMBL1201862, “PubChem BioAssay data set” (2004).
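Test compounds were applied to cells in 96-well plates for 48 hours at 5 doses. GI50 = concentration required for 50% inhibition of growth.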 Calls of active or inactive are those of the source. No stated cut-off is given here; in the data, active = GI50 up to about 1.1 µM and inactive = higher.

Columns and labels:
Experiment in all cases: NCI-60 cell line screen, 48 h
[1] = test system: DU-145
[2] = test system: SW-620
[3] = test system: A549
[4] = test system: HL-60
[5] = test system: SF-268
[6] = test system: SR
[7] = test system: SK-MEL-28
[8] = test system: MDA-MB-435
[9] = test system: IGROV-1
[10] = test system: SF-539
[11] = test system: BT-549
[12] = test system: RXF 393
[13] = test system: PC-3
[14] = test system: UACC-62
[15] = test system: K562
[16] = test system: SNB-75
[17] = test system: SNB-19
[18] = test system: NCI-H460
[19] = test system: NCI/ADR-RES
[20] = test system: MOLT-4

Measured: GI50

COC(=O)C(NC(=O)c1ccccc1)c1ccco1 (stereo not given)
inactive: [1] > 100 µM | [2] > 100 µM | [3] > 100 µM | [4] > 100 µM | [5] > 100 µM | [6] > 100 µM | [7] > 100 µM | [8] > 100 µM | [9] > 100 µM | [10] > 100 µM | [11] > 100 µM | [12] > 100 µM | [13] > 100 µM | [14] > 100 µM | [15] > 100 µM | [16] > 100 µM | [17] > 100 µM | [18] > 100 µM | [19] > 100 µM | [20] > 100 µM

CN1CCc2cc(N)cc3c2C1Cc1ccc(O)c(O)c1-3 (stereo not given)
inactive: [1] 56.6 µM | [2] 31.8 µM | [3] 34.2 µM | [4] 25.8 µM | [5] 6.43 µM | [6] 28.4 µM | [7] 35.6 µM | [8] 36.8 µM | [9] 33.7 µM | [10] 38 µM | [11] 58.2 µM | [12] 55.7 µM | [13] 38.2 µM | [14] 23.7 µM | [15] 24.9 µM | [16] 40.9 µM | [17] 46.6 µM | [18] 30.5 µM | [19] 36.8 µM | [20] 3.92 µM

Fc1cc(-c2cc(-c3ccc4c(c3)OCO4)n[nH]2)c(Cl)cc1Cl
inactive: [1] 3.34 µM | [2] 4.6 µM | [3] 2.72 µM | [4] > 100 µM | [5] 3.24 µM | [6] 7.29 µM | [7] 5.22 µM | [8] 4.88 µM | [9] 1.71 µM | [10] 2.31 µM | [11] 6.59 µM | [12] 1.89 µM | [13] 3.62 µM | [14] 1.46 µM | [15] 4.45 µM | [16] 1.8 µM | [17] 3.5 µM | [18] 3.61 µM | [19] 3.33 µM | [20] > 32.2 µM

CC(=N/NC(N)=S)/C(C)=N/NC(N)=S
inactive: [1] > 100 µM | [2] > 100 µM | [3] > 100 µM | [4] > 100 µM | [5] > 100 µM | [6] > 100 µM | [7] > 100 µM | [8] > 100 µM | [9] > 100 µM | [10] > 100 µM | [11] > 100 µM | [12] > 100 µM | [13] > 100 µM | [14] > 100 µM | [15] > 100 µM | [16] > 100 µM | [17] > 100 µM | [18] > 100 µM | [19] > 100 µM | [20] > 100 µM

C=C1c2nc3ccccc3n2C=C(c2ccc(C)cc2)N1c1ccc(OC)cc1
inactive: [1] > 100 µM | [2] 13.6 µM | [3] 47.5 µM | [4] 8.34 µM | [5] > 100 µM | [6] 3.22 µM | [7] > 70.5 µM | [8] 3.04 µM | [9] > 83 µM | [10] > 69.5 µM | [11] > 82.8 µM | [12] > 56.9 µM | [13] 16.4 µM | [14] 51.3 µM | [15] 6.41 µM | [16] > 80 µM | [17] > 100 µM | [18] 59.8 µM | [19] 14.9 µM | [20] 15.2 µM

CCOC(=O)/C=C1\C[C@H](NC(=O)OCc2ccccc2)C(=O)N1CC(=O)OCC
inactive: [1] > 100 µM | [2] > 100 µM | [3] > 100 µM | [4] > 100 µM | [5] > 100 µM | [6] > 100 µM | [7] > 100 µM | [8] > 100 µM | [9] > 100 µM | [10] > 100 µM | [11] > 100 µM | [12] 61.2 µM | [13] > 100 µM | [14] > 100 µM | [15] > 100 µM | [16] > 100 µM | [17] > 100 µM | [18] > 100 µM | [19] > 100 µM | [20] > 100 µM

C=C1C(=O)OC2CC3(CO3)C3C(O)C(O)CC3(C)CC12 (stereo not given)
inactive: [1] 34.4 µM | [2] 16.6 µM | [3] 40.9 µM | [4] 12.7 µM | [5] 40.3 µM | [6] 20.8 µM | [7] 17.4 µM | [8] 25.4 µM | [9] 35.6 µM | [10] 19.1 µM | [11] 18.1 µM | [12] 16.7 µM | [13] 45.8 µM | [14] 16.6 µM | [15] 27.5 µM | [16] 49.8 µM | [17] > 100 µM | [18] 34.9 µM | [19] 38.8 µM | [20] 17.8 µM

CC(C)(C)OC(=O)N(CCCCNC(=O)c1ccccc1)CCCNC(=O)c1ccccc1
inactive: [1] > 100 µM | [2] > 100 µM | [3] > 100 µM | [4] 31.4 µM | [5] > 100 µM | [6] 49.3 µM | [7] > 100 µM | [8] > 100 µM | [9] > 100 µM | [10] > 100 µM | [11] > 100 µM | [12] > 100 µM | [13] 98.6 µM | [14] > 100 µM | [15] > 100 µM | [16] > 100 µM | [17] > 100 µM | [18] > 100 µM | [19] 68.1 µM | [20] 46.8 µM

COc1ccc(/N=C(Nc2ccc(OC)cc2)/C(=N/c2ccc(OC)cc2)Nc2ccc(OC)cc2)cc1
inactive: [1] > 100 µM | [2] > 100 µM | [3] 96.2 µM | [4] 14.1 µM | [5] > 100 µM | [6] 48.2 µM | [7] > 100 µM | [8] > 100 µM | [9] > 100 µM | [10] > 100 µM | [11] > 100 µM | [12] > 100 µM | [13] 3.9 µM | [14] > 100 µM | [15] 15 µM | [16] 1.95 µM | [17] > 100 µM | [18] > 100 µM | [19] > 100 µM | [20] 4.25 µM

COCOc1cc(OCOC)cc(C(=O)Oc2ccccc2)c1
inactive: [1] > 100 µM | [2] > 100 µM | [3] > 100 µM | [4] > 100 µM | [5] > 100 µM | [6] 85.9 µM | [7] > 100 µM | [8] > 100 µM | [9] > 100 µM | [10] > 100 µM | [11] > 100 µM | [12] > 100 µM | [13] 93.8 µM | [14] > 100 µM | [15] > 100 µM | [16] 78.3 µM | [17] > 100 µM | [18] > 100 µM | [19] > 100 µM | [20] > 100 µM

COc1c(O)cc2oc(-c3ccc(O)cc3)cc(=O)c2c1O [HISPIDULIN]
inactive: [1] 30.5 µM | [2] 34.1 µM | [3] 35.5 µM | [4] 24.5 µM | [5] 46.6 µM | [6] 27.9 µM | [7] 45.7 µM | [8] 36.3 µM | [9] 22.7 µM | [10] 27 µM | [11] 28.3 µM | [12] 51.5 µM | [13] 34.2 µM | [14] 19 µM | [15] 34.8 µM | [16] 17.3 µM | [17] 56.1 µM | [18] 30.8 µM | [19] 36.1 µM | [20] 25.4 µM

C=CC(=C)CCC(Br)C(C)(C)Br (stereo not given)
inactive: [1] > 100 µM | [2] 32.4 µM | [3] > 100 µM | [4] 17.1 µM | [5] > 100 µM | [6] > 100 µM | [7] > 100 µM | [8] > 100 µM | [9] 80.7 µM | [10] > 100 µM | [11] > 100 µM | [12] > 100 µM | [13] > 100 µM | [14] > 100 µM | [15] 40.3 µM | [16] > 100 µM | [17] > 100 µM | [18] > 100 µM | [19] > 100 µM | [20] 15.6 µM

N#CC(C#N)=C(N)/C(C#N)=C/c1cc(O)c(O)c(Br)c1
inactive: [1] 97.5 µM | [2] 51.6 µM | [3] 59.4 µM | [4] 28.1 µM | [5] > 62.5 µM | [6] 37.8 µM | [7] > 100 µM | [8] 78.5 µM | [9] > 65.2 µM | [10] 44.1 µM | [11] > 100 µM | [12] > 100 µM | [13] 92.5 µM | [14] 39.4 µM | [15] 46.6 µM | [16] 52.7 µM | [17] > 67.3 µM | [18] 38.1 µM | [19] 36.4 µM | [20] 36.2 µM

CN(C)Cc1cc(/N=N/c2ccc(Cl)cc2)cc(CN(C)C)c1O
inactive: [1] 16.9 µM | [2] 8.09 µM | [3] 8.93 µM | [4] 1.44 µM | [5] 10.8 µM | [6] 4.59 µM | [7] 11.7 µM | [8] 12.2 µM | [9] 3.38 µM | [10] 10 µM | [11] 11 µM | [12] 9.44 µM | [13] 5.41 µM | [14] 13.9 µM | [15] 2.52 µM | [16] 10.9 µM | [17] 10.6 µM | [18] 5.15 µM | [19] 3.07 µM | [20] 2.75 µM
